For this experiment, the target named is full-length human ATR protein (Homo sapiens (Human), UniProt Q13535). Put plainly: Binding assay ATR (TR-FRET tracer displacement). Particulars: TR-FRET. The text has this: To determine of binding activity of the test compounds, full-length human ATR protein was expressed and purified together with ATRIP as described above. Furthermore, a fluorescently labelled compound (either tracer A or B as described above) was used as a tracer molecule. Detection of the binding event of the tracer was achieved by time-resolved fluorescence energy transfer (TR-FRET). We used an anti-GST-Terbium antibody (CisBio) that binds to the GST-tag at the N-terminus of ATR-kinase. […] Displacement of the fluorescent tracer by a test compound leads to a reduction of the TR-FRET-signal.
full-length human ATR protein, sequence (Q13535 other isoform, or with tags, fused parts or gaps): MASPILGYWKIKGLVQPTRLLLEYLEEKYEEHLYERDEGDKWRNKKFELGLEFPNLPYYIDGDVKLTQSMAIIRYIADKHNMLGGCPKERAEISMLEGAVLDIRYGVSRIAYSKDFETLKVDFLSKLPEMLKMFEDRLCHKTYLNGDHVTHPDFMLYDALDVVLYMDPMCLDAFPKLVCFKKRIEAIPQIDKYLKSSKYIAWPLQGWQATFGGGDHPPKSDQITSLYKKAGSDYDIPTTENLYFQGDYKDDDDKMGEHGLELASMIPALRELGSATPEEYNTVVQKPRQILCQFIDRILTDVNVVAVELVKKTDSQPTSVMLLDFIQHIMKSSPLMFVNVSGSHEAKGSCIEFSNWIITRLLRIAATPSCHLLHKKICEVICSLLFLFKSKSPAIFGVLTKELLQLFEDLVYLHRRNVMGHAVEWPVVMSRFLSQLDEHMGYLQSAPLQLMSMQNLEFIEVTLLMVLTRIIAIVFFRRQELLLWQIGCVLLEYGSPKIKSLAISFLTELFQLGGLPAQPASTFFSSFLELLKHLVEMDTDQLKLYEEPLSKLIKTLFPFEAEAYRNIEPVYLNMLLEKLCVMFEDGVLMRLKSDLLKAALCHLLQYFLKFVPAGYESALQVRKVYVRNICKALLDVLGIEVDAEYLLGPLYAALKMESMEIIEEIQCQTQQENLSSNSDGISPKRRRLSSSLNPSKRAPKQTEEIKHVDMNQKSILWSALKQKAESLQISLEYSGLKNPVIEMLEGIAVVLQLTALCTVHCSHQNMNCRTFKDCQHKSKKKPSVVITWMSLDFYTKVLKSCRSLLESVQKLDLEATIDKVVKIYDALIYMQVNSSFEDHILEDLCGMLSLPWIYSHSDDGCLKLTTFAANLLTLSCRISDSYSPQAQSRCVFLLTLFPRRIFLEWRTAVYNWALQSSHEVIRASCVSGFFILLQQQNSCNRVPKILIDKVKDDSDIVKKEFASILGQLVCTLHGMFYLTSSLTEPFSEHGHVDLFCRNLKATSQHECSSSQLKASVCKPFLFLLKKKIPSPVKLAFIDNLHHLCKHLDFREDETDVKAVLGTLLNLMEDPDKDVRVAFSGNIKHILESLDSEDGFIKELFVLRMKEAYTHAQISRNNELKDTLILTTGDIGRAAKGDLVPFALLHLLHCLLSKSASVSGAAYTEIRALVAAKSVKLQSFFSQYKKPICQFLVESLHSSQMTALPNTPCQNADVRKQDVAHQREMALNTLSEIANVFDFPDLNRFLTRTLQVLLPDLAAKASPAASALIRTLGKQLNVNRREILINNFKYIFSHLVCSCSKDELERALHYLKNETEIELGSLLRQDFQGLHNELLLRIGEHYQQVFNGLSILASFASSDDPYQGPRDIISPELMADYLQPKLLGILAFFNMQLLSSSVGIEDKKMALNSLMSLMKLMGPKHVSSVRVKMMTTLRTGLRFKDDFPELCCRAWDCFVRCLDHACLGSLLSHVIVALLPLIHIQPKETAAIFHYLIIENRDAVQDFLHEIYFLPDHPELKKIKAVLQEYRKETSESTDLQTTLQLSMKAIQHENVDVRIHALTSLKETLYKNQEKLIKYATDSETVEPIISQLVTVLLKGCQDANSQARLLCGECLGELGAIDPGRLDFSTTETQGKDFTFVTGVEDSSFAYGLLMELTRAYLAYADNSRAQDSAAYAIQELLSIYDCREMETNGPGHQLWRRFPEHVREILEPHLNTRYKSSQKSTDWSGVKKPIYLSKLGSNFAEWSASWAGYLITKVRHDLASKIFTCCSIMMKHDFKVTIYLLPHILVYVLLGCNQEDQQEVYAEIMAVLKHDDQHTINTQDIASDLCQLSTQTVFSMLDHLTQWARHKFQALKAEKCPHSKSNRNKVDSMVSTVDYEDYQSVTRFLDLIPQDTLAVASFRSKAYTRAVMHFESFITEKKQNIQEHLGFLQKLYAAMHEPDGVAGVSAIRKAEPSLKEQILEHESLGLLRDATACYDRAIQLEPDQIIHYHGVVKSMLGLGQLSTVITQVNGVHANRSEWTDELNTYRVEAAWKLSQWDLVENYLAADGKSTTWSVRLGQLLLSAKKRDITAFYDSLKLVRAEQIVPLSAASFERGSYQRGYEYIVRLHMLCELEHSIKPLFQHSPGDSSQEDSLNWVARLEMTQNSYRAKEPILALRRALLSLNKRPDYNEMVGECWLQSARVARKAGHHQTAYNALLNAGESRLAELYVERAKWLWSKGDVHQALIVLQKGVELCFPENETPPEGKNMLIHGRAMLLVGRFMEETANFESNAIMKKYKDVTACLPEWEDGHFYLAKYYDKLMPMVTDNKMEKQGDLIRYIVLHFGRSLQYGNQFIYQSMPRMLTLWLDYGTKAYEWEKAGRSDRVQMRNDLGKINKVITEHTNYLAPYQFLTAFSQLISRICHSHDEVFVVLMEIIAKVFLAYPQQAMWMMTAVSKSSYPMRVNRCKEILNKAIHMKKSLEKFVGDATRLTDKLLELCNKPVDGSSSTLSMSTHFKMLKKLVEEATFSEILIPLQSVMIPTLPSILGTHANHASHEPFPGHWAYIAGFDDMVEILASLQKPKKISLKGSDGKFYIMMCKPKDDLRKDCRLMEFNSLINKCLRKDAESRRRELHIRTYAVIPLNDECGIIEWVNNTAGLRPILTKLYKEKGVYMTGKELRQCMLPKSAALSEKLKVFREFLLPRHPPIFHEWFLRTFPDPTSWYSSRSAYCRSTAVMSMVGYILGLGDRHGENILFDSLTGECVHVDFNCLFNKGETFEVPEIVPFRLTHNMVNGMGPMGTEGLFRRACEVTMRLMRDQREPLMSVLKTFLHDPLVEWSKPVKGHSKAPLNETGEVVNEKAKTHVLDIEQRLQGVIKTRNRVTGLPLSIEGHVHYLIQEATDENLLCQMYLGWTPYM
full-length human ATR protein, sequence (Q8WXE1 other isoform, or with tags, fused parts or gaps partner): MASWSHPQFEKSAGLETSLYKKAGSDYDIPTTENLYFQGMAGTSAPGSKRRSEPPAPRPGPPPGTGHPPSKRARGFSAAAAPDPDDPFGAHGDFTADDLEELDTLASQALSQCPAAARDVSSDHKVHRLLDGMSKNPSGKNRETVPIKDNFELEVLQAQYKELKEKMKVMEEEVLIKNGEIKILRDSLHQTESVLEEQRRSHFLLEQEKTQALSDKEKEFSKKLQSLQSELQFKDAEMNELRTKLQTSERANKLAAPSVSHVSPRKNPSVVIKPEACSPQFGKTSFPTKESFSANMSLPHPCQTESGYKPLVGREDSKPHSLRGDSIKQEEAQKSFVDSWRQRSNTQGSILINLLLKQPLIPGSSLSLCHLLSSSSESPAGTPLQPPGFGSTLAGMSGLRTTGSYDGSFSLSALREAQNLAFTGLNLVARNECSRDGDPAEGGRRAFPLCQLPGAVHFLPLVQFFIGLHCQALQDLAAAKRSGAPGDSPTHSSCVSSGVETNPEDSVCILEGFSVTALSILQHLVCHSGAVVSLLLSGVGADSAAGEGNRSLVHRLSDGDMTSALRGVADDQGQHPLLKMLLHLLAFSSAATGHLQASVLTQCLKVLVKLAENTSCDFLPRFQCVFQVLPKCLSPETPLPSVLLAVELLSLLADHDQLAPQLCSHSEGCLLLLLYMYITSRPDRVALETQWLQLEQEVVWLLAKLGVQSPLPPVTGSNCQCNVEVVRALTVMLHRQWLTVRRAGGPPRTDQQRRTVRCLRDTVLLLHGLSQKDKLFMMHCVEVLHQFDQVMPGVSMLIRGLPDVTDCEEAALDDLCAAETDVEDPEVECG
For the assay 50 nl of a 100-fold concentrated solution of the test compound in DMSO was pipetted into a black low volume 384well microtiter plate (MTP, Greiner Bio-One, Frickenhausen, Germany). […] The ATR-working solution was incubated for 30 min at 22° C. prior to dispensing to pre-form the complex of antiGST-Tb+GST-ATR+ATRIP. Then, 3 μl of the ATR-working solution were added to the test compound and the mixture was incubated for 10 min at 22° C. to allow pre-binding of the test compounds to ATR/ATRIP. Then, 2 μl of a 100 nM solution of either tracer A or B in assay buffer were added to the ATR-working solution. The resulting mixture was incubated for 30 min at 22° C. […] The dilution series were prepared separately before the assay on the level of the 100 fold concentrated solutions in DMSO by serial 1:3.4 dilutions in duplicate values for each concentration. IC50 values were calculated by a 4 parameter fit using standard software (GraphPad prism or equivalent).

[1] abbreviates: tracer A, read-out: ATR binding (tracer A) IC50.
Where [2] appears, read: tracer B, read-out: ATR binding (tracer B) IC50.

A word on the IC50: it is the concentration needed to halve the response being measured.

Where a name gives a salt, the structure may show the parent alone. Read-outs that look alike come from different tables or passages of the source.

`Cc1cc(COc2cc(N3CCOCC3)nc3c(-c4ccn[nH]4)nccc23)on1` [Example 48, 4-[(3-methyl-1,2-oxazol-5-yl)methoxy]-2-(morpholin-4-yl)-8-(1H-pyrazol-5-yl)-1,7-naphthyridine]: the IC50 under setting [1] came out at 161 nM.
On to `Cc1cc(COc2cc(N3CCOCC3)nc3c(-c4ccn[nH]4)nccc23)no1` [Example 49, 4-[(5-methyl-1,2-oxazol-3-yl)methoxy]-2-(morpholin-4-yl)-8-(1H-pyrazol-5-yl)-1,7-naphthyridine], for which the IC50 under setting [1] worked out at 200 nM.
Take `c1ccc(COc2cc(N3CCOCC3)nc3c(-c4cc[nH]n4)nccc23)cc1` [Example 50, 4-benzyloxy-2-(morpholin-4-yl)-8-(1H-pyrazol-3-yl)-[1,7]naphthyridine]: the IC50 runs as follows: under setting [1], 410 nM; under setting [2], 514 nM.
In the same order, the values of `CC(C)Oc1cc(N2CCOC[C@H]2C)nc2c(-c3cc[nH]n3)nccc12` [Example 51, 4-isopropoxy-2-((R)-3-methylmorpholin-4-yl)-8-(1H-pyrazol-3-yl)-[1,7]naphthyridine] are 38 nM and 23.3 nM.
Take `C[C@@H]1COCCN1c1cc(OCCCCNC(=O)OC(C)(C)C)c2ccnc(-c3ccn[nH]3)c2n1` [Example 52, Tert-butyl [4-({2-[(3R)-3-methylmorpholin-4-yl]-8-(1H-pyrazol-5-yl)-1,7-naphthyridin-4-yl}oxy)butyl]carbamate]: the IC50 is 101 nM under setting [1] and 78.9 nM under setting [2].
In the same order, the values of `COc1cc(N2CCOC[C@H]2C)nc2c(-c3cc[nH]n3)nccc12` [Example 53, 4-methoxy-2-((R)-3-methylmorpholin-4-yl)-8-(1H-pyrazol-3-yl)-[1,7]naphthyridine] are 192 nM and 63.5 nM.
On the same counts, the results for `C[C@@H]1COCCN1c1cc(OCCCNC(=O)OC(C)(C)C)c2ccnc(-c3ccn[nH]3)c2n1` [Example 54, Tert-butyl [3-({2-[(3R)-3-methylmorpholin-4-yl]-8-(1H-pyrazol-5-yl)-1,7-naphthyridin-4-yl}oxy)propyl]carbamate] are 288 nM and 129 nM.
In the case of `C[C@@H]1COCCN1c1cc(OCCN)c2ccnc(-c3ccn[nH]3)c2n1` [Example 55, 2-({2-[(3R)-3-methylmorpholin-4-yl]-8-(1H-pyrazol-5-yl)-1,7-naphthyridin-4-yl}oxy)ethanamine], under setting [1], the IC50 came out at 162 nM.
Regarding `C[C@@H]1COCCN1c1cc(OCCNC(=O)OC(C)(C)C)c2ccnc(-c3ccn[nH]3)c2n1` [Example 56, Tert-butyl [2-({2-[(3R)-3-methylmorpholin-4-yl]-8-(1H-pyrazol-5-yl)-1,7-naphthyridin-4-yl}oxy)ethyl]carbamate], the IC50 under setting [1] was 751 nM and the IC50 under setting [2] is 324 nM.
As for `C[C@@H]1COCCN1c1cc(OCCCCN)c2ccnc(-c3ccn[nH]3)c2n1` [Example 57, 4-({2-[(3R)-3-methylmorpholin-4-yl]-8-(1H-pyrazol-5-yl)-1,7-naphthyridin-4-yl}oxy)butan-1-amine], the IC50 under setting [1] worked out at 230 nM.
Take `CC(C)Oc1cc(N2[C@H](C)COC[C@@H]2C)nc2c(-c3ccn[nH]3)nccc12` [Example 58, 2-[(3R,5S)-3,5-dimethylmorpholin-4-yl]-4-isopropoxy-8-(1H-pyrazol-5-yl)-1,7-naphthyridine]: the IC50 under setting [1] came to 413 nM and the IC50 under setting [2] was 615 nM.
In the case of `CC(C)Oc1cc(N2[C@H](C)COC[C@H]2C)nc2c(-c3ccn[nH]3)nccc12` [Example 59, 2-[(3R,5R)-3,5-dimethylmorpholin-4-yl]-4-isopropoxy-8-(1H-pyrazol-5-yl)-1,7-naphthyridine], the IC50 by setting is: under setting [1], 730 nM; under setting [2], 1250 nM.
On the same counts, the results for `c1cc2c(C3CCOCC3)cc(N3CCOCC3)nc2c(-c2cc[nH]n2)n1` [Example 60, 2-(morpholin-4-yl)-8-(1H-pyrazol-5-yl)-4-(tetrahydro-2H-pyran-4-yl)-1,7-naphthyridine] are 24.1 nM and 15.7 nM.
In the same order, the values of `c1cc2ccc(N3CCOCC3)nc2c(-c2cc[nH]n2)n1` [Example 61, 2-(morpholin-4-yl)-8-(1H-pyrazol-3-yl)-[1,7]naphthyridine hydrochloride] are 709 nM and 503 nM.
On the same counts, the results for `Clc1cc(N2CCOCC2)nc2c(-c3cc[nH]n3)nccc12` [Example 62, 4-chloro-2-morpholin-4-yl-8-(1H-pyrazol-3-yl)-[1,7]naphthyridine] are 997 nM and 707 nM.
For `CSc1cc(N2CCOC[C@H]2C)nc2c(-c3ccn[nH]3)nccc12` [Example 63, 2-[(3R)-3-methylmorpholin-4-yl]-4-(methylsulfanyl)-8-(1H-pyrazol-5-yl)-1,7-naphthyridine], the IC50 was 80.7 nM under setting [1] and 30.7 nM under setting [2].
Consider `C[C@@H]1COCCN1c1cc(N=S2(=O)CCOCC2)c2ccnc(-c3ccn[nH]3)c2n1` [Example 64, N-{2-[(3R)-3-methylmorpholin-4-yl]-8-(1H-pyrazol-5-yl)-1,7-naphthyridin-4-yl}-1,4λ^4-oxathian-4-imine 4-oxide], for which the IC50 under setting [1] turned out to be 27.4 nM.
For the molecule `CS(C)(=O)=Nc1cc(N2CCOCC2)nc2c(-c3ccn[nH]3)nccc12` [Example 65, 4-{[dimethyl(oxido)-λ^6-sulfanylidene]amino}-2-(morpholin-4-yl)-8-(1H-pyrazol-5-yl)-1,7-naphthyridine], the IC50 came to 335 nM under setting [1] and 276 nM under setting [2].
Turning to `C[C@@H]1COCCN1c1cc(N2CCNCC2)c2ccnc(-c3ccn[nH]3)c2n1` [Example 66, 2-[(3R)-3-methylmorpholin-4-yl]-4-(piperazin-1-yl)-8-(1H-pyrazol-5-yl)-1,7-naphthyridine], the IC50 under setting [1] was 87.2 nM.
As for `CC(C)Oc1cc(N2CCOC[C@@H]2C)nc2c(-c3cc[nH]n3)nccc12` [Example 67, 4-isopropoxy-2-((S)-3-methylmorpholin-4-yl)-8-(1H-pyrazol-3-yl)-[1,7]naphthyridine], the half-inhibitory concentration (IC50) runs as follows: under setting [1], 1000 nM; under setting [2], 1270 nM.
Take `CC(C)Oc1cc(N2CCOCC2)nc2c(-c3cc[nH]c3)nccc12` [Example 68, 2-(morpholin-4-yl)-4-(propan-2-yloxy)-8-(1H-pyrrol-3-yl)-1,7-naphthyridine]: the IC50 under setting [1] stood at 589 nM and the IC50 under setting [2] came to 472 nM.
In the case of `CCn1nccc1-c1cc(N2CCOC[C@H]2C)nc2c(-c3ccn[nH]3)nccc12` [Example 69, 4-(1-ethyl-1H-pyrazol-5-yl)-2-[(3R)-3-methylmorpholin-4-yl]-8-(1H-pyrazol-5-yl)-1,7-naphthyridine], the IC50 under setting [1] amounted to 5.34 nM.
Regarding `C[C@@H]1COCCN1c1cc(-c2cncn2C)c2ccnc(-c3ccn[nH]3)c2n1` [Example 70, 4-(1-methyl-1H-imidazol-5-yl)-2-[(3R)-3-methylmorpholin-4-yl]-8-(1H-pyrazol-5-yl)-1,7-naphthyridine], under setting [1], the IC50 was 5.17 nM.
Same read-out and setting: then `C[C@@H]1COCCN1c1cc(-c2ccccc2N)c2ccnc(-c3ccn[nH]3)c2n1` [Example 71, 2-{2-[(3R)-3-methylmorpholin-4-yl]-8-(1H-pyrazol-5-yl)-1,7-naphthyridin-4-yl]aniline], with 5.65 nM; and `C[C@@H]1COCCN1c1cc(-c2cccc(F)c2F)c2ccnc(-c3ccn[nH]3)c2n1` [Example 72, 4-(2,3-difluorophenyl)-2-[(3R)-3-methylmorpholin-4-yl]-8-(1H-pyrazol-5-yl)-1,7-naphthyridine], with 6.33 nM.

These data come from US9549932B2, “2-(morpholin-4-yl)-1,7-naphthyridines” (BAYER PHARMA AKTIENGESELLSCHAFT, priority 2014, dated 2017).
